pEC50: −log10 of the molar value. Where two headings read alike, the source gives them in different places. A value given as a limit tells only on which side of the number the result lay.

Consider two sequences from patent US20060156419A1, “Mouse model for autoimmune disorders” (THE WISTAR INSTITUTE of ANATOMY and BIOLOGY, priority 2002, published 2006).

Experiment [1] deals with TS1 T cell receptor. The experiment in a line: Proliferation of TS1 CD4+ T cells in response to graded doses of peptide. In kind it is cell-based, mouse.
Experiment [2] has as its system TS1(SW) T cell receptor. As to the kind of experiment: Proliferation of TS1(SW) CD4+ T cells in response to graded doses of peptide. The format is cell-based, mouse. Particulars: for pEC50: read-out: half maximal stimulation.
For experiment [3], the system named is TS1(SW) T cell receptor. Particulars: Jordan et al, 2001; cited from earlier work.

Regarding SFEKFEIFPKT [S1(SW) peptide], in experiment [1] (FIG. 7A), the “binding affinity of TS1 T cell receptor (in words)” value is given as “low affinity”. In addition, the pEC50 in experiment [2] (CD4+ T cells of TS1(SW) TCR transgenic mice, proliferation, FIG. 7) was about 7.30. Also, in experiment [2] (FIG. 7B), the “binding affinity of TS1(SW) T cell receptor (in words)” value was “high affinity”.

Take SFERFEIFPKE [S1 peptide]: the “binding affinity of TS1 T cell receptor (in words)” value in experiment [1] is “high affinity”. In addition, in experiment [2], the “affinity for the TS1(SW) TCR, fold lower than for S1(SW) peptide” value is “about 100 fold”; the “binding affinity of TS1(SW) T cell receptor (in words)” value is “low affinity”; the “fold higher concentrations of S1 peptide needed to reach half-maximal stimulation” value is “around 30 fold”; the pEC50 was under 6.00. In addition, the “affinity of TS1(SW) TCR for S1 peptide, fold lower than that of the TS1 TCR” value in experiment [3] is reported as “approximately 100 fold”.
